# Test results from patent US11186575B2, “Treatment of helicobacter pylori infections” (Albert Einstein College of Medicine, Inc., priority 2012, dated 2021).
# Like-named read-outs stand apart in the source and are kept apart here.
# Experiments:
# [1] = target: T1, H. pylori MTAN (Helicobacter pylori, UniProt Q9ZMY2); assay: Ki determination: inhibition of recombinant HpMTAN, xanthine oxidase coupled assay, 5′-methylthioadenosine as substrate; assay type: biochemical
# T1 construct: His6 (N); made in house; host or cells: E. coli BL21 (DE3)
# T1 sequence (Q9ZMY2 1-230): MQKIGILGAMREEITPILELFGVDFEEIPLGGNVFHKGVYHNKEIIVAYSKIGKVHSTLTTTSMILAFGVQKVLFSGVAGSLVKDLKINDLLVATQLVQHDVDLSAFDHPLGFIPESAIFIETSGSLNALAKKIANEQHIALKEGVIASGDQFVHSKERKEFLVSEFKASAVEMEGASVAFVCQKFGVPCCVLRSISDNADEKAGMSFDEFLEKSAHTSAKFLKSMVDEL
# Description: The purification procedure of HpMTAN was described previously^10. Briefly, BL21 (DE3) cells harboring a plasmid encoding HpMTAN with an N-terminal His6-tag were grown to an optical density of 0.7 measured at 595 nm and IPTG was introduced to a final concentration of 0.5 mM. After another 15 h at 22° C., cells were collected by centrifugation. The pellet was suspended and later disrupted by pressure cell and sonication. The soluble portion was applied to a Ni-NTA column and HpMTAN was eluted with an imidazole concentration gradient of 200 to 500 mM. The protein was desalted using a Superdex G15 gel-filtration column then equilibrated and concentrated in 10 mM Hepes, 30 mM KCl, pH 7.6. The purity was confirmed by SDS-PAGE.
# Kinetics of HpMTAN were determined using a direct assay involving absorbance decrease at 274 nm continuously as a consequence of formation of free adenine from 5′-methylthioadenosine. The Ki and Ki* values of BuT-DADMe-ImmA (30) were determined using coupled assays, in which xanthine oxidase was used as the coupling enzyme and absorbance increase was followed at 292 nm as the product adenine is converted to 2,8-dihydroxyadenine. Both assays have been previously described
# BuT-DADMe-ImmA (30) was previously characterized as a transition state analogue inhibitor of EcMTAN (FIG. 1C)^8. Here, inhibition assays were performed using BuT-DADMe-ImmA against recombinant HpMTAN with 5′-methylthioadenosine as substrate. Purified HpMTAN uses both 5′-methylthioadenosine and 6-amino-6-deoxyfutalosine as facile substrates. […] The low Kd value supports the proposal that BuT-DADMe-ImmA is a transition state analogue inhibitor for HpMTAN. […] The nitrogen of the hydroxypyrrolidine moiety has a pKa value of 9, and thus mimics the positive charge of a ribocation at the transition state. The methylene bridge extends the distance between the sugar and the purine base leaving group, as this distance is near 3 Å at the transition state. The 9-deazaadenine alters conjugation in the purine ring, causing an elevated pKa and protonation of N7, resembling the N7-protonated adenine leaving group at the transition state.
# [2] = tested on: H. pylori; assay: H. pylori growth on tryptic soy agar with 5% horse blood (MIC); assay type: cell-based, Helicobacter pylori; conditions: Helicobacter pylori, read-out: Inhibition of H. pylori growth MIC90
# Description: (§1) H. pylori were grown for 72 hours under microaerophilic condition (5% O2, 10% CO2 and 85% N2) at 37° C. on tryptic soy agar with 5% horse blood. To determine the MIC values, the test substance was added to the gel solution right before pouring. To compare the zones of inhibition, specific antibiotics were added to the center of disc after spreading H. pylori, and then H. pylori was allowed to grow for 72 hours under microaerophilic condition at 37° C.
# The effects of BuT-DADMe-ImmA (30) were tested on H. pylori growing on 5% horse blood agar. At 6 ng/ml, slight growth was detected and at 8 ng/ml, no growth was detected, therefore the MIC90 value for inhibition of H. pylori growth is <8 ng/ml (FIG. 3A).
# [3] = target: T1, H. pylori MTAN; conditions: Table 3, cited from earlier work
# [4] = tested on: H. pylori; assay: Zone of inhibition (disc) on H. pylori; assay type: cell-based, Helicobacter pylori; conditions: equivalent amounts (10 ng or 20 ng per disc)
# Description: FIG. 3A-3B: The effects of BuT-DADMe-ImmA (30) on H. pylori growth. A. The effects of increasing the concentration of BuT-DADMe-ImmA (ng/ml) on growth on blood agar. B. The inhibitory effects of BuT-DADMe-ImmA are compared with amoxicillin, metronidazole and tetracyclin in zone of inhibition studies. Drug concentrations were: 0 (top disc), 10 ng (middle disc) or 20 ng (bottom disc). Each specified antibiotic was applied to the disc in the same manner.
# as §1
# Commonly used antibiotics in H. pylori infections include amoxicillin, metronidazole and tetracycline. The anti-H. pylori effects of BuT-DADMe-ImmA (30) were compared to those antibiotics in common use. […] Thus, BuT-DADMe-ImmA is more efficient at inhibition of H. pylori growth than commonly used antibiotics.
# [5] = Table 3, DADMe-Immucillin-A series, initial inhibition constant, read-out: Inhibition of H. pylori MTAN Ki
# [6] = Table 3, equilibrium dissociation constant after slow onset, read-out: Inhibition of H. pylori MTAN Ki*
# [7] = Table 3, agar plate, 72 hours, microaerophilic
# [8] = Table 4, Immucillin-A series, read-out: Inhibition of H. pylori MTAN Ki
# [9] = 72 h, Table 4, Immucillin-A series
# [10] = Table 4, Immucillin-A series, read-out: Inhibition of H. pylori MTAN Ki*
"Ki [1, 5] [nM]","Ki [1, 6] [nM]","MIC90 [2, 7] [µg/mL]",Compound,further results
0.28 ± 0.03,0.05 ± 0.01,0.08,"Nc1ncnc2c(CN3C[C@H](CCSCCOCCO)[C@@H](O)C3)c[nH]c12 [Compound 17, (3R,4S)-1-({4-Amino-5H-pyrrolo[3,2-d]pyrimidin-7-yl}methyl)-4-(2-{[2-(2-hydroxyethoxy)ethyl]thio}ethyl)pyrrolidin-3-ol]",
0.21 ± 0.03,0.005 ± 0.002,0.004 to 0.008,"CCCCCCSC[C@H]1CN(Cc2c[nH]c3c(N)ncnc23)C[C@@H]1O [Compound 18, (3R,4S)-1-({4-Amino-5H-pyrrolo[3,2-d]pyrimidin-7-yl}methyl)-4-[(hexylthio)methyl]pyrrolidin-3-ol]",
0.32 ± 0.7,0.041 ± 0.002,0.04,"Nc1ncnc2c(CN3C[C@H](CSc4ccccn4)[C@@H](O)C3)c[nH]c12 [Compound 24, (3R,4S)-1-({4-Amino-5H-pyrrolo[3,2-d]pyrimidin-7-yl}methyl)-4-[(pyridin-2-ylthio)methyl]pyrrolidin-3-ol]",
0.24 ± 0.07,0.016 ± 0.005,0.02,Nc1ncnc2c(CN3C[C@H](CSc4nccs4)[C@@H](O)C3)c[nH]c12 [Compound 29],
0.78 ± 0.15,0.17 ± 0.01,0.007 to 0.014,Nc1ncnc2c(CN3C[C@H](CSC4CCCC4)[C@@H](O)C3)c[nH]c12 [Compound 32],
0.058 ± 0.014,0.007 ± 0.002,0.01,CCCC[C@H]1CN(Cc2c[nH]c3c(N)ncnc23)C[C@@H]1O [Compound 33],
0.053 ± 0.007,,0.016,CCC[C@H]1CN(Cc2c[nH]c3c(N)ncnc23)C[C@@H]1O [Compound 35],
0.4 ± 0.05,0.027 ± 0.002,0.035 to 0.07,Nc1ncnc2c(CN3C[C@H](CSC4CCCCCC4)[C@@H](O)C3)c[nH]c12 [Compound 37],
0.28 ± 0.02,,> 0.1,"Nc1ncnc2c(CN3C[C@H](CSc4n[nH]c(-c5ccncc5)n4)[C@@H](O)C3)c[nH]c12 [Compound 56, (3R,4S)-1-({4-Amino-5H-pyrrolo[3,2-d]pyrimidin-7-yl}methyl)-4-({[5-(pyridin-4-yl)-1H-1,2,4-triazol-3-yl]thio}methyl)pyrrolidin-3-ol]",

# The next lines start with the compound.
Compound,"Ki [1, 5] [nM]","Ki [1, 6] [nM]","MIC90 [2, 7] [µg/mL]",further results
"Nc1ncnc2c(CN3CC(O)[C@@H](CSCCO)C3)c[nH]c12 (stereo partly drawn) [Compound 10, (4S)-1-((4-amino-5H-pyrrolo[3,2-d]pyrimidin-7-yl)methyl)-4-(((2-hydroxyethyl)thio)methyl)pyrrolidin-3-ol]",0.43 ± 0.12,0.04 ± 0.01,,
"Nc1ncnc2c(CN3CC(O)[C@@H](CSCCCO)C3)c[nH]c12 (stereo partly drawn) [Compound 11, (4S)-1-((4-Amino-5H-pyrrolo[3,2-d]pyrimidin-7-yl)methyl)-4-(((3-hydroxypropyl)thio)methyl)pyrrolidin-3-ol]",0.89 ± 0.13,0.1 ± 0.01,0.04,
"Nc1ncnc2c(CN3CC(O)[C@@H](CSCCCCO)C3)c[nH]c12 (stereo partly drawn) [Compound 12, (4S)-1-((4-Amino-5H-pyrrolo[3,2-d]pyrimidin-7-yl)methyl)-4-(((4-hydroxybutyl)thio)methyl)pyrrolidin-3-ol]",0.34 ± 0.07,0.11 ± 0.04,0.02,
"Nc1ncnc2c(CN3CC(O)[C@@H](CSCCOCCO)C3)c[nH]c12 (stereo partly drawn) [Compound 13, (4S)-1-((4-Amino-5H-pyrrolo[3,2-d]pyrimidin-7-yl)methyl)-4-(((2-(2-hydroxyethoxyl)ethyl)thio)methyl)pyrrolidin-3-ol]",0.96 ± 0.16,0.015 ± 0.004,0.035 to 0.07,
"C#CCCCCSC[C@H]1CN(Cc2c[nH]c3c(N)ncnc23)C[C@@H]1O [Compound 14, (3R,4S)-1-({4-Amino-5H-pyrrolo[3,2-d]pyrimidin-7-yl}methyl)-4-[(hex-5-yn-1-ylthio)methyl]pyrrolidin-3-ol]",0.5 ± 0.2,0.09 ± 0.02,0.004 to 0.008,
"Nc1ncnc2c(CN3C[C@H](CCSCCO)[C@@H](O)C3)c[nH]c12 [Compound 16, (3R,4S)-1-({4-Amino-5H-pyrrolo[3,2-d]pyrimidin-7-yl}methyl)-4-{2-[(2-hydroxyethyl)thio]ethyl}pyrrolidin-3-ol]",0.26 ± 0.03,0.05 ± 0.01,0.08,
"CCCCCCSCC[C@H]1CN(Cc2c[nH]c3c(N)ncnc23)C[C@@H]1O [Compound 19, (3R,4S)-1-({4-Amino-5H-pyrrolo[3,2-d]pyrimidin-7-yl}methyl)-4-[2-(hexylthio)ethyl]pyrrolidin-3-ol]",0.7 ± 0.1,0.14 ± 0.01,0.04,
"Nc1ncnc2c(CN3C[C@H](CSc4cnccn4)[C@@H](O)C3)c[nH]c12 [Compound 27, (3R,4S)-1-({4-Amino-5H-pyrrolo[3,2-d]pyrimidin-7-yl}methyl)-4-[(pyrazin-2-ylthio)methyl]pyrrolidin-3-ol]",0.043 ± 0.001,0.006,0.008,
CSCC1CN(Cc2c[nH]c3c(N)ncnc23)CC1O (stereo not shown) [Compound 31],,,0.006 to 0.012,"Ki ([3]; read-out: Inhibition of H. pylori MTAN Ki*, value from Reference 10): 0.57 nM; Ki ([3]; read-out: Inhibition of H. pylori MTAN Ki, value marked (Reference 10)): 1.2 nM"
CCSC[C@H]1CN(Cc2c[nH]c3c(N)ncnc23)C[C@@H]1O [Compound 34],0.12 ± 0.03,0.52 ± 0.04,0.016,
Nc1ncnc2c(CN3C[C@H](CSCC4CCCCC4)[C@@H](O)C3)c[nH]c12 [Compound 36],0.56 ± 0.27,0.045 ± 0.004,0.018 to 0.035,
Nc1ncnc2c(CN3C[C@H](CSCc4ccccc4)[C@@H](O)C3)c[nH]c12 [Compound 38],203 ± 28,0.31 ± 0.08,0.04,
Nc1ncnc2c(CN3C[C@H](CSC4CCC4)[C@@H](O)C3)c[nH]c12 [Compound 40],0.27 ± 0.04,0.04 ± 0.01,,
Nc1ncnc2c(CN3CC(O)C(CSc4ccc(Cl)cc4)C3)c[nH]c12 (stereo not shown) [Compound 41],,,,"Ki ([3]; value from Reference 10, read-out: Inhibition of H. pylori MTAN Ki*): 0.57 nM; Ki ([3]; value marked (Reference 10), read-out: Inhibition of H. pylori MTAN Ki): 40 nM"
CCCSC[C@H]1NC(c2c[nH]c3c(N)ncnc23)[C@H](O)[C@@H]1O (stereo partly shown) [Compound 42],,,,"Ki [1, 8]: 0.6 ± 0.1 nM; MIC90 [2, 9]: 0.016 µg/mL"
CCCCSC[C@H]1NC(c2c[nH]c3c(N)ncnc23)[C@H](O)[C@@H]1O (stereo partly shown) [Compound 43],,,,"Ki [1, 8]: 0.51 ± 0.07 nM; Ki [1, 10]: 0.05 ± 0.01 nM; MIC90 [2, 9]: 0.02 µg/mL"
CSC[C@H]1NC(c2c[nH]c3c(N)ncnc23)[C@H](O)[C@@H]1O (stereo partly shown) [Compound 44],,,,"Ki [1, 8]: 0.98 ± 0.06 nM; Ki [1, 10]: 0.24 ± 0.03 nM; MIC90 [2, 9]: 0.08 µg/mL"
"CC1(C)S[C@@H]2[C@H](NC(=O)[C@H](N)c3ccc(O)cc3)C(=O)N2[C@H]1C(=O)O [amoxicillin, reference compound]",,,,"zones of inhibition, comparison of antibiotics [4]: smaller zone of growth inhibition than BuT-DADMe-ImmA"
